Measurements reported in patent publication US8404648B2, “Polypeptides KXK and their use” (Sederma, priority 2006, dated 2013).
“And” between values parts separate entries of the source, which are not always exact repeats. Identical values can stand only once. Where a SMILES comes first, the peptide text is derived from it. Where no end group is shown, it is not given here. The star is where a group is joined. Ela = elaidoyl, CCCCCCCC/C=C/CCCCCCCC(=O)*; Palmitoyl = CCCCCCCCCCCCCCCC(=O)*

Legend:
Assay type in all cases: cell-based
[1] = tested on: Normal Human Dermal Fibroblasts (NHDF); test: Survival estimated on cell layer using a fluorescent probe; settings: 3 days of incubation
Description: (§1) Principle of the study: Normal Human Dermal Fibroblasts (NHDF) were cultivated in an appropriate culture medium (i.e. complete DMEM with fetal calf serum). After cell anchorage, cell layers were rinsed with saline buffer and contact with molecules to be tested were performed in a complete DMEM without fetal calf serum. This medium contained ascorbate (sodium salt) and beta-aminopropionitrile, monofumarate. After 3 days of incubation, supernatants were collected and frozen. Survival was estimated on cell layer using a fluorescent probe. Collagen I was estimated using an original direct ELISA method, Fibronectin and Collagen IV were estimated using ELISA commercial kits.

[2] = tested on: Collagen I synthesis, Normal Human Dermal Fibroblasts (NHDF); test: Collagen I synthesis by NHDF, direct ELISA on supernatants after 3 days; settings: for Collagen I synthesis, result in words: vs negative control; for Variation of Collagen I synthesis (mean, in % of negative control): NHDF, 3 days
Description: (§2) Products: Pal-KTFK (SEQ ID NO: 7), Ela-KTAK (SEQ ID NO: 9) and Ela-KTFK (SEQ ID No: 8) were tested from 2 to 6 ppm, and Pal-KAvaK was tested from 1 to 4 ppm. Solvent=DMSO 0.08%. TGF-beta1 10^−6%, was the positive control for collagen I and fibronectin studies.
as §1
(§3) Results: Statistical analysis were performed on Collagen I data (n=5/assay) or fibronectin data (n=5/assay) or Collagen IV data (n=5/assay). Results obtained with molecules were compared to negative control. All data are in ng/10E6 cells. A Student t test for non paired values was used; significativity was obtained if p<0.05 or p<0.01.

[3] = tested on: Fibronectin synthesis, Normal Human Dermal Fibroblasts (NHDF); test: Fibronectin synthesis by NHDF, commercial ELISA kit on supernatants after 3 days; settings: for Variation of Fibronectin synthesis (mean, in % of negative control): NHDF, 3 days; for Fibronectin synthesis, result in words: vs negative control
Description: as §2, §1, §3

[4] = tested on: Collagen IV synthesis, Normal Human Dermal Fibroblasts (NHDF); test: Collagen IV synthesis by NHDF, commercial ELISA kit on supernatants after 3 days; settings: for Variation of Collagen IV synthesis (mean, in % of negative control): NHDF, 3 days
Description: as §2, §1, §3

[5] = positive control, TGF-beta1 10^−6% (10 ppb)

Compound	Variation of Collagen I synthesis (mean, in % of negative control) ([2]; 2 ppm) [%]	Variation of Collagen I synthesis (mean, in % of negative control) ([2]; 4 ppm) [%]	Variation of Collagen I synthesis (mean, in % of negative control) ([2]; 6 ppm) [%]	Collagen I synthesis, result in words ([2]; 6 ppm)	Variation of Fibronectin synthesis (mean, in % of negative control) ([3]; 2 ppm) [%]	Variation of Fibronectin synthesis (mean, in % of negative control) ([3]; 4 ppm) [%]	Fibronectin synthesis, result in words ([3]; 4 ppm)	Variation of Fibronectin synthesis (mean, in % of negative control) ([3]; 6 ppm) [%]	Variation of Collagen IV synthesis (mean, in % of negative control) ([4]; 2 ppm) [%]	Variation of Collagen IV synthesis (mean, in % of negative control) ([4]; 4 ppm) [%]	further results
CCCCCCCCCCCCCCCC(=O)N[C@@H](CCCCN)C(=O)N[C@H](C(=O)N[C@@H](Cc1ccccc1)C(=O)N[C@@H](CCCCN)C(=O)O)[C@@H](C)O [Pal-KTFK, Pal-Lys-Thr-Phe-Lys] (Palmitoyl-KTFK-OH)											maximal concentration accepted by the cells [1]: ~6 ppm
TGF-beta: TGF-beta1 10^−6%, the positive control for collagen I and fibronectin studies [reference compound]											Collagen I synthesis, result in words [2, 5]: significant increase; Variation of Fibronectin synthesis (mean, in % of negative control) ([3]; 10 ppb): 124% and 85% and 87%; Fibronectin synthesis, result in words [3, 5]: significant increase; Variation of Collagen IV synthesis (mean, in % of negative control) ([4]; 10 ppb): 12%
Ela-Lys-Thr-Ala-Lys (Ela-KTAK) [N-elaidoyl tetrapeptide Lys-Thr-Ala-Lys]	6	18	45	increase	16	32	increase	31			
Pal-Lys-Ava-Lys [Pal-KAvaK]	14	49			15	54	increase		9	23	Variation of Collagen I synthesis (mean, in % of negative control) ([2]; 1 ppm): 1%; Collagen I synthesis, result in words ([2]; 4 ppm): increase; Variation of Fibronectin synthesis (mean, in % of negative control) ([3]; 1 ppm): 14%; Variation of Collagen IV synthesis (mean, in % of negative control) ([4]; 1 ppm): 8%; Collagen IV synthesis, result in words ([4]; 4 ppm, vs negative control): increase
Ela-Lys-Thr-Phe-Lys (Ela-KTFK) [N-elaidoyl tetrapeptide Lys-Thr-Phe-Lys]	6	19	49	significant increase	10	25		42	10	7	Fibronectin synthesis, result in words ([3]; 6 ppm): significant increase; Variation of Collagen IV synthesis (mean, in % of negative control) ([4]; 6 ppm): 7%
